In PubChem BioAssay (NCI):
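In this assay, cells in 96-well plates receive the compound at five concentrations for 48 hours. Endpoints are linearly interpolated between the surrounding concentrations. At the TGI there is no net growth.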

What was measured:
Assay in all cases: NCI anticancer screen, dose series, 48 h
SK-MEL-28 melanoma = tested on: SK-MEL-28 melanoma
UACC-62 melanoma = tested on: UACC-62 melanoma
DMS 114 small cell lung = tested on: DMS 114 small cell lung
DMS 273 small cell lung = tested on: DMS 273 small cell lung
K-562 leukemia = tested on: K-562 leukemia
IGROV1 ovarian = tested on: IGROV1 ovarian
SNB-78 CNS = tested on: SNB-78 CNS
OVCAR-3 ovarian = tested on: OVCAR-3 ovarian
DLD-1 colon = tested on: DLD-1 colon
UACC-257 melanoma = tested on: UACC-257 melanoma
OVCAR-5 ovarian = tested on: OVCAR-5 ovarian
T-47D breast = tested on: T-47D breast

COc1cc2c(cc1OC)C(Cl)C(c1ccc(Cl)c(Cl)c1)=C2Cl (stereo not drawn)
TGI (SK-MEL-28 melanoma): 32.7 µM | TGI (UACC-62 melanoma): 18.7 µM | TGI (DMS 114 small cell lung): 15.9 µM | TGI (DMS 273 small cell lung): 14.7 µM | TGI (K-562 leukemia): > 100 µM | TGI (IGROV1 ovarian): 28.9 µM | TGI (SNB-78 CNS): 33.7 µM | TGI (OVCAR-3 ovarian): 15.2 µM

CCOC(=O)Cc1cc(OC)c(OC)cc1/C(Cl)=C(\C=O)c1ccc(OC)c(OC)c1
TGI (SK-MEL-28 melanoma): 65.7 µM | TGI (DLD-1 colon): 48.8 µM | TGI (UACC-257 melanoma): 32.9 µM | TGI (UACC-62 melanoma): 37.9 µM | TGI (DMS 114 small cell lung): 48.8 µM | TGI (DMS 273 small cell lung): 44.3 µM | TGI (K-562 leukemia): 56.5 µM | TGI (IGROV1 ovarian): 78.9 µM | TGI (SNB-78 CNS): 81.1 µM | TGI (OVCAR-3 ovarian): 28.1 µM

COc1cc2cc[n+]3c(C)c4cc(OC)c(OC)cc4c([O-])c3c2cc1OC
TGI (SK-MEL-28 melanoma): > 100 µM | TGI (DLD-1 colon): > 100 µM | TGI (UACC-257 melanoma): > 100 µM | TGI (UACC-62 melanoma): > 100 µM | TGI (DMS 114 small cell lung): 62.1 µM | TGI (DMS 273 small cell lung): > 100 µM | TGI (K-562 leukemia): > 100 µM | TGI (IGROV1 ovarian): 72.8 µM | TGI (SNB-78 CNS): > 100 µM | TGI (OVCAR-5 ovarian): > 100 µM | TGI (OVCAR-3 ovarian): 24.7 µM

O=C1C(=O)c2ccccc2C(O)=C1CCCc1ccc(Oc2ccccc2)cc1
TGI (SK-MEL-28 melanoma): > 100 µM | TGI (DLD-1 colon): > 100 µM | TGI (UACC-257 melanoma): 23.9 µM | TGI (UACC-62 melanoma): 15 µM | TGI (DMS 114 small cell lung): 23.5 µM | TGI (DMS 273 small cell lung): 51.8 µM | TGI (K-562 leukemia): > 100 µM | TGI (IGROV1 ovarian): 84.3 µM | TGI (SNB-78 CNS): 97.3 µM | TGI (OVCAR-5 ovarian): > 100 µM | TGI (OVCAR-3 ovarian): 24.9 µM

CC1(c2ccc[n+](Cc3ccccc3)c2)OCCO1
TGI (DLD-1 colon): > 100 µM | TGI (UACC-257 melanoma): > 100 µM | TGI (UACC-62 melanoma): > 100 µM | TGI (DMS 273 small cell lung): > 100 µM | TGI (K-562 leukemia): > 100 µM | TGI (IGROV1 ovarian): > 100 µM | TGI (SNB-78 CNS): > 100 µM | TGI (OVCAR-5 ovarian): > 100 µM | TGI (OVCAR-3 ovarian): > 100 µM

Cc1nc2c(sc(=S)n2-c2ccccc2)c(=O)[nH]1
TGI (SK-MEL-28 melanoma): > 100 µM | TGI (DLD-1 colon): > 100 µM | TGI (UACC-257 melanoma): > 100 µM | TGI (UACC-62 melanoma): > 100 µM | TGI (K-562 leukemia): > 100 µM | TGI (IGROV1 ovarian): > 100 µM | TGI (OVCAR-5 ovarian): > 100 µM | TGI (OVCAR-3 ovarian): > 100 µM

COc1ccc(C(=O)Cc2ccc(Br)cc2)cc1OC
TGI (DLD-1 colon): > 100 µM | TGI (UACC-257 melanoma): > 100 µM | TGI (UACC-62 melanoma): > 100 µM | TGI (DMS 114 small cell lung): > 100 µM | TGI (DMS 273 small cell lung): > 100 µM | TGI (K-562 leukemia): > 100 µM | TGI (IGROV1 ovarian): > 100 µM | TGI (SNB-78 CNS): > 100 µM | TGI (OVCAR-5 ovarian): > 100 µM | TGI (OVCAR-3 ovarian): > 100 µM

CC(=O)Nc1ccc(OC2=CCN(C)CC2)cc1
TGI (T-47D breast): > 100 µM | TGI (SK-MEL-28 melanoma): > 100 µM | TGI (UACC-257 melanoma): > 100 µM | TGI (UACC-62 melanoma): > 100 µM | TGI (K-562 leukemia): > 100 µM | TGI (IGROV1 ovarian): > 100 µM | TGI (OVCAR-5 ovarian): > 100 µM | TGI (OVCAR-3 ovarian): > 100 µM

COc1ccc(C2N(NC(=O)c3ccncc3)C(=O)CS2(=O)=O)cc1F (stereo not drawn)
TGI (SK-MEL-28 melanoma): > 100 µM | TGI (DLD-1 colon): > 100 µM | TGI (UACC-257 melanoma): > 100 µM | TGI (DMS 114 small cell lung): > 100 µM | TGI (DMS 273 small cell lung): > 100 µM | TGI (SNB-78 CNS): > 100 µM | TGI (OVCAR-5 ovarian): > 100 µM

C#CCSC(C=C=C)P(=O)(OC(C)C)OC(C)C (stereo not drawn)
TGI (T-47D breast): > 100 µM | TGI (SK-MEL-28 melanoma): > 100 µM | TGI (UACC-257 melanoma): > 100 µM | TGI (UACC-62 melanoma): > 100 µM | TGI (K-562 leukemia): 68.4 µM | TGI (IGROV1 ovarian): > 100 µM | TGI (OVCAR-5 ovarian): > 100 µM | TGI (OVCAR-3 ovarian): > 100 µM

O=C(O)c1nc(-c2ccccc2)[nH]c1C(=O)O
TGI (T-47D breast): 33.1 µM | TGI (SK-MEL-28 melanoma): 30.2 µM | TGI (UACC-257 melanoma): 30.3 µM | TGI (UACC-62 melanoma): 32.4 µM | TGI (K-562 leukemia): 15.3 µM | TGI (IGROV1 ovarian): 28.2 µM | TGI (OVCAR-5 ovarian): 31.7 µM | TGI (OVCAR-3 ovarian): 26.4 µM
